Test system: RAW 264.7 cells
Experiment: Cytotoxicity against macrophage, alamar blue
Assay type: cell-based
Details: CPT 0.01 to 2.5 μg/ml, 48 hr; PCSNs stored in 55% FBS 1 hr
Experimental: In detail, CPT-loaded HER2-PCSNs were prepared and stored in a high concentration of serum protein environment of 55% FBS for 1 hr. Thereafter, the stored HER2-PCSNs were collected and washed, and then treated to RAW 264.7 cells at a CPT concentration of 0.01 μg/ml, 0.1 μg/ml, 0.25 μg/ml, 0.5 μg/ml, 1.0 μg/ml, or 2.5 μg/ml, followed by incubation for 48 hr. After completing incubation, cell viability was examined using an alamar blue dye. As a control for comparison of the cell killing effect, RAW 264.7 cells were treated with free CPT which was not loaded in nanoparticles, and cell viability thereof was examined.

Which “cell killing effect on macrophages (cell viability)” value does the source give for `CC[C@@]1(O)C(=O)OCc2c1cc1n(c2=O)Cc2cc3ccccc3nc2-1` [free CPT, camptothecin] here?
Its value is “exhibited the cell killing effect on RAW 264.7 cells with increasing treatment concentrations”.

— patent publication US11844844B2, “Fusion protein comprising glutathione-s-transferase and protein having binding affinity target cell or target protein, and use thereof” (UNIST(ULSAN NATIONAL INSTITUTE OF SCIENCE AND TECHNOLOGY), priority 2017, dated 2023)
